The source of these data is PubChem BioAssay AID844 (SRMLSC, 2007).

Activity calls are given as the source filed them. No rule for the calls is given here.

The experiment deals with MRP1 cells, doxorubicin viability shift, 10 uM compound. The experiment can be described thus: doxorubicin EC50 increase in MRP-1 cells, dose response, cell-based, doxorubicin EC50 shift (AID 844). To be noted: for EC50: measured here: doxorubicin EC50 with compound.

Consider `COC(=O)N/N=C/c1ccc(-c2ccc(Cl)c(Cl)c2)o1`, for which the fold increase in Dox EC50 was 0.67 (inactive) and the EC50 was found to be 3.62 µM.

Consider `CCOC(=O)c1nnc(-c2ccccc2)nc1Oc1ccccc1Cl`, for which the fold increase in Dox EC50 was 0.99 (inactive) and the EC50 was determined as 5.34 µM.

As to `CCc1nnc(NC(=O)c2ccc(S(=O)(=O)N(CC)CC)cc2)s1`, the fold increase in Dox EC50 is 0.69 (inactive) and the EC50 came out at 3.73 µM.

For `Cc1ccc(CC2SC(=Nc3ccccc3)N(c3ccccc3)C2=O)cc1` (stereo unspecified), the fold increase in Dox EC50 was 1.69 and the EC50 worked out at 9.1 µM.

`CC(CCc1ccccc1)NC(=O)C1CCN(C(=O)c2sccc2-n2cccc2)CC1` (stereo unspecified): the fold increase in Dox EC50 was 0.28 (inactive) and the EC50 is 1.51 µM.

For `Nc1ccc(C(=O)OCC(=O)N2c3ccccc3Sc3ccccc32)cc1[N+](=O)[O-]`, the fold increase in Dox EC50 is 1.29 (inactive) and the EC50 came to 6.97 µM.

Consider `CC(C)OC(=O)CSc1nnc2n1C(C)(C)Cc1ccccc1-2`, for which the fold increase in Dox EC50 is 0.82 (inactive) and the EC50 was 4.42 µM.

On to `Cc1ccc(C)c(N2CCN(C(=O)c3ccc4nc(-c5ccco5)c(-c5ccco5)nc4c3)CC2)c1`, for which the fold increase in Dox EC50 was 0.79 (inactive) and the EC50 was found to be 4.25 µM.

Turning to `O=C(CSc1nnc(-c2ccccc2)n1-c1ccc(Cl)cc1)N/N=C/c1ccco1`, the fold increase in Dox EC50 is 0.53 (inactive) and the EC50 came out at 2.84 µM.

On to `CN(Cc1ccccc1)c1oc(COc2ccccc2F)nc1C#N`, for which the fold increase in Dox EC50 was 0.66 (inactive) and the EC50 stood at 3.56 µM.

With `COc1ccc(/C=C2/N=C(SC3CCOC3=O)N(c3cccc(OC)c3)C2=O)cc1` (stereo unspecified), the fold increase in Dox EC50 was 0.68 (inactive) and the EC50 came out at 3.67 µM.

In the case of `O=C(NNC1=C(C(=O)C(F)(F)F)CCC1)c1ccc(Cl)cc1`, the fold increase in Dox EC50 is 0.87 (inactive) and the EC50 turned out to be 4.7 µM.

As to `Cc1noc(/C=C/N(C)C)c1S(=O)(=O)N1CCCC(C(=O)NCc2ccccc2Cl)C1` (stereo unspecified), the fold increase in Dox EC50 was 0.82 (inactive) and the EC50 came to 4.42 µM.

As to `CN(C)S(=O)(=O)c1ccc(S(=O)(=O)N2CCN(CCC#N)CC2)cc1`, the fold increase in Dox EC50 was 0.71 (inactive) and the EC50 was found to be 3.85 µM.

In the case of `COc1ccc(OC)c(NC(=O)CSc2nnc(CNC(=O)COc3ccc(Cl)cc3)o2)c1`, the fold increase in Dox EC50 is 1.11 (inactive) and the EC50 turned out to be 5.98 µM.

For `Cc1ccccc1NC(=O)CSC1=NCCN1`, the fold increase in Dox EC50 is 0.69 (inactive) and the concentration for a half-maximal effect (EC50) came out at 3.73 µM.

As to `Cc1cccc(C)c1-n1c(C)cc(/C=C2\C(=O)NN(c3ccccc3)C2=O)c1C`, the fold increase in Dox EC50 was 0.63 (inactive) and the concentration giving a half-maximal response (EC50) was 3.39 µM.

On to `COc1ccc(-c2[nH]ncc2-c2cnn(-c3ccccc3)c2)c(O)c1`, for which the fold increase in Dox EC50 was 0.27 (inactive) and the concentration giving a half-maximal response (EC50) came to 1.43 µM.

With `COc1ccc(CNc2nc3c(c(=O)n(Cc4ccc(Br)cc4)c(=O)n3C)n2C)cc1`, the fold increase in Dox EC50 was 0.95 (inactive) and the EC50 came to 5.13 µM.

On to `Cc1c(C(=O)OC2CCC(C)CC2)[nH]c2c1C(=O)CCC2` (stereo unspecified), for which the fold increase in Dox EC50 was 0.93 (inactive) and the concentration for a half-maximal effect (EC50) is 5.01 µM.

In the case of `CC1CCc2c(C(=O)OCC(=O)Nc3cccc(S(=O)(=O)N4CCCCCC4)c3)csc2C1` (stereo unspecified), the fold increase in Dox EC50 was 1.05 (inactive) and the EC50 is 5.68 µM.

As to `N#CC1=C2C=Cc3ccccc3N2CCCC1=O`, the fold increase in Dox EC50 was 1.28 (inactive) and the EC50 is 6.9 µM.

Consider `CCCCOc1ccc(/C=C/C(=O)Nc2ccc([N+](=O)[O-])cc2C)cc1`, for which the fold increase in Dox EC50 is 1.17 (inactive) and the EC50 worked out at 6.3 µM.

With `CC(=O)N1CCN=C1SCc1ccccc1F`, the fold increase in Dox EC50 is 0.78 (inactive) and the EC50 turned out to be 4.2 µM.

`c1ccc2c(-c3nc(C4CCCCC4)no3)cc(-c3ccncc3)nc2c1`: the fold increase in Dox EC50 is 0.62 (inactive) and the EC50 came to 3.32 µM.

For the compound `CCn1c(COc2ccc(C)cc2)nnc1SCc1nc2ccccc2[nH]1`, the fold increase in Dox EC50 is 0.88 (inactive) and the EC50 is 4.76 µM.

As to `Cc1ccc(C(=O)COc2ccccc2-c2ccccc2)cc1C`, the fold increase in Dox EC50 was 0.9 (inactive) and the 50% effective concentration (EC50) came to 4.85 µM.

For `Cn1c(=O)oc2cc(S(=O)(=O)N3CCCC(C(=O)NCC4COc5ccccc5O4)C3)ccc21` (stereo unspecified), the fold increase in Dox EC50 was 0.53 (inactive) and the EC50 stood at 2.86 µM.

Take `O=C1CSC2=NCN(c3ccccc3)CN12`: the fold increase in Dox EC50 was 0.55 (inactive) and the EC50 is 2.95 µM.

Consider `Cc1onc(-c2ccccc2Cl)c1C(=O)OCC(=O)Nc1ccc2c(c1)OCO2`, for which the fold increase in Dox EC50 was 1.19 (inactive) and the EC50 worked out at 6.42 µM.

As to `CC(=O)N1CCN=C1SCc1ccc(Cl)cc1`, the fold increase in Dox EC50 was 1.06 (inactive) and the EC50 is 5.75 µM.

`N#CCCNC(=O)Cn1c(COc2ccc(Cl)cc2)nc2ccccc21`: the fold increase in Dox EC50 was 0.85 (inactive) and the EC50 amounted to 4.57 µM.

With `CCOC(=O)N1CCN(C(=O)CSc2nnc(COc3ccc(Cl)cc3)o2)CC1`, the fold increase in Dox EC50 is 1.03 (inactive) and the EC50 was found to be 5.55 µM.

For the compound `CCCCCC(=O)Nc1ccc(S(=O)(=O)Nc2ccc(Cl)nn2)cc1`, the fold increase in Dox EC50 was 1.12 (inactive) and the EC50 came out at 6.04 µM.

For `N#Cc1nc(COc2ccccc2)oc1N1CCCCCC1`, the fold increase in Dox EC50 was 0.59 (inactive) and the EC50 amounted to 3.17 µM.

Regarding `CCCNC(=O)c1oc2ccc3c(c2c1C)C(=O)CC(C)(C)O3`, the fold increase in Dox EC50 was 0.84 (inactive) and the EC50 turned out to be 4.55 µM.

`COc1ccccc1C1C(C(=O)c2sc(C)nc2C)=C(O)C(=O)N1CCN1CCOCC1` (stereo unspecified): the fold increase in Dox EC50 is 0.71 (inactive) and the EC50 came out at 3.81 µM.

On to `O=C(CCN1C(=O)/C(=C/c2ccccc2)SC1=S)NNC(=O)c1cccnc1`, for which the fold increase in Dox EC50 was 1.27 (inactive) and the EC50 stood at 6.88 µM.

With `Cc1nc(OCc2ccccc2)c2sc3nc4c(cc3c2n1)COC(C)(C)C4`, the fold increase in Dox EC50 was 1.3 (inactive) and the EC50 amounted to 7.04 µM.

On to `Cc1ccc(C(=O)Nc2nnc(C)s2)o1`, for which the fold increase in Dox EC50 was 1.32 (inactive) and the EC50 amounted to 7.14 µM.

As to `COc1ccccc1CNC(=O)Cn1cc2c(n1)CCCC2`, the fold increase in Dox EC50 was 1.66 and the EC50 was determined as 8.94 µM.

As to `CC(C)(C)NC(=O)c1cccc(NC(=O)Cc2ccc(Br)cc2)c1`, the fold increase in Dox EC50 is 0.97 (inactive) and the EC50 amounted to 5.23 µM.

For the compound `COc1ccc(CN=C2NC(=O)CC(C(=O)Nc3ccccc3C)S2)cc1` (stereo unspecified), the fold increase in Dox EC50 is 1.16 (inactive) and the EC50 was determined as 6.24 µM.

For `COc1ccc(/C=C/C(=O)NCc2cnn(C)c2C)cc1COc1ccc(Br)cc1`, the fold increase in Dox EC50 is 0.68 (inactive) and the EC50 came out at 3.7 µM.

Turning to `C=C1c2cc(CC)ccc2NC(=O)N1c1ccc(C)cc1`, the fold increase in Dox EC50 was 0.44 (inactive) and the EC50 is 2.37 µM.

`CCc1nnc(NC(=O)c2ccc(S(=O)(=O)N3CCCCCC3)cc2)s1`: the fold increase in Dox EC50 was 0.9 (inactive) and the EC50 worked out at 4.88 µM.

With `Cc1ccc(-c2nc(C3CCCN(S(=O)(=O)c4ccc(C)cc4)C3)no2)cc1` (stereo unspecified), the fold increase in Dox EC50 was 1.08 (inactive) and the EC50 was determined as 5.85 µM.

As for `CCc1ccc(-c2csc(NC(=O)Oc3ccccc3)n2)cc1`, the fold increase in Dox EC50 was 1.23 (inactive) and the EC50 is 6.65 µM.

`COc1cc(C2NC(=O)NC(C)=C2C(=O)OCc2ccc(C)cc2)cc(OC)c1O` (stereo unspecified): the fold increase in Dox EC50 was 0.68 (inactive) and the EC50 was determined as 3.65 µM.

As to `O=C(NC(=S)Nc1ccccc1N1CCCCC1)c1ccc(-c2cccc([N+](=O)[O-])c2)o1`, the fold increase in Dox EC50 is 1.3 (inactive) and the EC50 was found to be 7.02 µM.

Regarding `COc1ccc(N2C(=O)CC(N3CCC(O)(c4cccc(C(F)(F)F)c4)CC3)C2=O)cc1` (stereo unspecified), the fold increase in Dox EC50 is 0.89 (inactive) and the EC50 is 4.82 µM.

Take `Cc1ccc(OCc2nnc(SC3CCc4ccccc4C3=O)n2C)cc1` (stereo unspecified): the fold increase in Dox EC50 was 1.22 (inactive) and the EC50 was 6.56 µM.

On to `Cc1ccc(N2C(=O)NC(=O)/C(=C\c3ccsc3)C2=O)cc1C`, for which the fold increase in Dox EC50 was 0.8 (inactive) and the EC50 was determined as 4.33 µM.

For `O=C(COc1ccc(Cl)cc1)N1CCN(S(=O)(=O)c2ccccc2)CC1`, the fold increase in Dox EC50 was 0.68 (inactive) and the EC50 worked out at 3.68 µM.

For the compound `Cn1nc(C(F)(F)F)c2cc(NC(=O)OCc3ccc(C(C)(C)C)cc3)sc21`, the fold increase in Dox EC50 is 0.74 (inactive) and the EC50 came out at 4.02 µM.

On to `CNc1sc(C(=O)c2cccs2)c(N)c1-c1nc2ccccc2s1`, for which the fold increase in Dox EC50 is 0.56 (inactive) and the half-maximal effective concentration (EC50) was 3.03 µM.

In the case of `CN=C1S/C(=C\c2cc(C)n(-c3ccccc3F)c2C)C(=O)N1C`, the fold increase in Dox EC50 was 0.65 (inactive) and the EC50 came to 3.49 µM.

With `C=CCN(C(=O)Nc1ccc(Cl)cc1)C1CC(=O)N(c2ccc(OC)cc2)C1=O` (stereo unspecified), the fold increase in Dox EC50 is 0.9 (inactive) and the EC50 turned out to be 4.85 µM.

With `Cc1cc(C)n(CCC(=O)N/N=C/c2ccccc2O)n1`, the fold increase in Dox EC50 was 0.28 (inactive) and the EC50 was 1.54 µM.

Regarding `CCCCC1S/C(=N/N=C/c2ccc(OC)cc2)N(Cc2ccc(OC)cc2)C1=O` (stereo unspecified), the fold increase in Dox EC50 is 1.18 (inactive) and the EC50 worked out at 6.34 µM.

For `CCOc1ccc(-c2nc(C#N)c(N3CCCCCC3)o2)cc1`, the fold increase in Dox EC50 was 0.56 (inactive) and the EC50 was determined as 3.04 µM.

Take `N#CCn1nnc(-c2ccc3c(c2)OCO3)n1`: the fold increase in Dox EC50 is 1.01 (inactive) and the EC50 was found to be 5.43 µM.

For the compound `Cc1ccc(S(=O)(=O)Nc2ccc3ncccc3c2)cc1`, the fold increase in Dox EC50 is 1.36 (inactive) and the EC50 turned out to be 7.32 µM.

As usually defined, the EC50 is the concentration that produces a half-maximal response.
